Inconclusive results and toxic doses are left out. Rule as the data show it: active = T/C of 150% or more; inactive = T/C below 125%.
Test system: L1210 leukemia ip in BDF1 mice, survival T/C
Experiment: NCI In Vivo Anticancer Drug Screen. Data for tumor model L1210 Leukemia (intraperitoneal) in B6D2F1 (BDF1) mice
Settings: higher = longer survival
In short: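 Value reflects the ratio of survival in compound-treated mice to survival in vehicle-treated controls, with both groups carrying the same transplanted tumor.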

[1] = endpoint: mean survival time, dose: 100.0 mg/kg/injection, schedule: Q04DX002 (ip), vehicle: Klucel (hydroxypropylcellulose) (HPC)
[2] = endpoint: mean survival time, dose: 200.0 mg/kg/injection, schedule: Q04DX002 (ip), vehicle: Klucel (hydroxypropylcellulose) (HPC)
[3] = endpoint: mean survival time, dose: 400.0 mg/kg/injection, schedule: Q04DX002 (ip), vehicle: Klucel (hydroxypropylcellulose) (HPC)
[4] = endpoint: mean survival time, dose: 100.0 mg/kg/injection, schedule: Q01DX001 (ip), vehicle: saline
[5] = endpoint: mean survival time, dose: 200.0 mg/kg/injection, schedule: Q01DX001 (ip), vehicle: saline
[6] = endpoint: mean survival time, dose: 400.0 mg/kg/injection, schedule: Q01DX001 (ip), vehicle: saline
[7] = endpoint: mean survival time, dose: 100.0 mg/kg/injection, schedule: Q04DX003 (ip), vehicle: saline with Tween-80
[8] = endpoint: mean survival time, dose: 200.0 mg/kg/injection, schedule: Q04DX003 (ip), vehicle: saline with Tween-80
[9] = endpoint: mean survival time, dose: 100.0 mg/kg/injection, schedule: Q01DX001 (ip), vehicle: Klucel (hydroxypropylcellulose) (HPC)
[10] = endpoint: mean survival time, dose: 200.0 mg/kg/injection, schedule: Q01DX001 (ip), vehicle: Klucel (hydroxypropylcellulose) (HPC)
[11] = endpoint: mean survival time, dose: 100.0 mg/kg/injection, schedule: Q04DX003 (ip), vehicle: saline
[12] = endpoint: mean survival time, dose: 200.0 mg/kg/injection, schedule: Q04DX003 (ip), vehicle: saline
[13] = endpoint: mean survival time, dose: 50.0 mg/kg/injection, schedule: Q01DX009 (ip), vehicle: saline with Tween-80
[14] = endpoint: mean survival time, dose: 100.0 mg/kg/injection, schedule: Q01DX001 (ip), vehicle: saline with Tween-80
[15] = endpoint: mean survival time, dose: 100.0 mg/kg/injection, schedule: Q01DX009 (ip), vehicle: saline with Tween-80
[16] = endpoint: mean survival time, dose: 200.0 mg/kg/injection, schedule: Q01DX001 (ip), vehicle: saline with Tween-80
[17] = endpoint: mean survival time, dose: 200.0 mg/kg/injection, schedule: Q01DX009 (ip), vehicle: saline with Tween-80
[18] = endpoint: mean survival time, dose: 75.0 mg/kg/injection, schedule: Q01DX001 (ip), vehicle: other
[19] = endpoint: mean survival time, dose: 150.0 mg/kg/injection, schedule: Q01DX001 (ip), vehicle: other

Measured: T/C

CSC(=Nc1ccccc1)N(C)c1ccccc1
inactive: endpoint: mean survival time, dose: 100.0 mg/kg/injection, schedule: Q04DX003 (ip), vehicle: Klucel (hydroxypropylcellulose) (HPC) 90 % of control | endpoint: mean survival time, dose: 200.0 mg/kg/injection, schedule: Q04DX003 (ip), vehicle: Klucel (hydroxypropylcellulose) (HPC) 86 % of control | endpoint: mean survival time, dose: 400.0 mg/kg/injection, schedule: Q04DX003 (ip), vehicle: Klucel (hydroxypropylcellulose) (HPC) 88 % of control

COC(=O)C1C(O)C(C)C(O)C(C)/C=C\C=C(C)C(=O)Nc2c(C)c(OC(C)=O)c3c(c2O)C(=O)C(C)=C2OCOC(=C23)C(C)=CC(C)(O)C(O)C(C)C1O (stereo unspecified)
inactive: [1] 104 % of control | [2] 101 % of control | [3] 90 % of control

S=P(NCCS)(N1CC1)N1CC1
inactive: [4] 106 % of control | [5] 101 % of control | [6] 101 % of control

O=C(CC1CCCCC1O)Nc1ccccc1 (stereo unspecified)
inactive: endpoint: mean survival time, dose: 50.0 mg/kg/injection, schedule: Q01DX001 (ip), vehicle: saline 97 % of control | [4] 95 % of control | [5] 101 % of control | [6] 97 % of control

COc1cccc(C(=O)c2ccccc2NC(C)=O)c1
inactive: [7] 93 % of control | [8] 94 % of control | endpoint: mean survival time, dose: 400.0 mg/kg/injection, schedule: Q04DX003 (ip), vehicle: saline with Tween-80 93 % of control

CCOc1ccc(-n2c(=O)c(N=Nc3ccc(Cl)cc3)c(O)n(-c3ccc(C)cc3)c2=S)cc1
inactive: [9] 100 % of control | [10] 107 % of control | endpoint: mean survival time, dose: 400.0 mg/kg/injection, schedule: Q01DX001 (ip), vehicle: Klucel (hydroxypropylcellulose) (HPC) 100 % of control

CCCCCCCC(=O)OCC(=O)[C@]1(O)Cc2c(O)c3c(c(O)c2[C@@H](OC2CC(N)C(O)C(C)O2)C1)C(=O)c1c(OC)cccc1C3=O (stereo partly specified)
inactive: endpoint: median survival time, dose: 0.25 mg/kg/injection, schedule: Q03HX024 (ip), vehicle: water 110 % of control | endpoint: median survival time, dose: 1.0 mg/kg/injection, schedule: Q03HX024 (ip), vehicle: water 109 % of control | endpoint: median survival time, dose: 1.0 mg/kg/injection, schedule: Q04DX003 (ip), vehicle: water 115 % of control | endpoint: median survival time, dose: 2.0 mg/kg/injection, schedule: Q03HX008 (ip), vehicle: water 114 % of control | endpoint: median survival time, dose: 2.0 mg/kg/injection, schedule: Q04DX003 (ip), vehicle: water 124 % of control | endpoint: median survival time, dose: 2.5 mg/kg/injection, schedule: Q01DX001 (ip), vehicle: water 121 % of control | endpoint: median survival time, dose: 2.5 mg/kg/injection, schedule: Q08DX002 (ip), vehicle: water 101 % of control | endpoint: median survival time, dose: 4.0 mg/kg/injection, schedule: Q01DX009 (ip), vehicle: water 88 % of control | endpoint: median survival time, dose: 4.0 mg/kg/injection, schedule: Q04DX003 (ip), vehicle: water 111 % of control | endpoint: median survival time, dose: 5.0 mg/kg/injection, schedule: Q08DX002 (ip), vehicle: water 121 % of control | endpoint: median survival time, dose: 10.0 mg/kg/injection, schedule: Q01DX001 (ip), vehicle: water 121 % of control | endpoint: median survival time, dose: 10.0 mg/kg/injection, schedule: Q08DX002 (ip), vehicle: water 121 % of control | endpoint: median survival time, dose: 20.0 mg/kg/injection, schedule: Q08DX002 (ip), vehicle: water 96 % of control

CN(C)P1(=O)N(c2ccc(Cl)cc2)P(=O)(N(C)C)N1c1ccc(Cl)cc1 (stereo unspecified)
inactive: endpoint: mean survival time, dose: 100.0 mg/kg/injection, schedule: Q04DX002 (ip), vehicle: saline 96 % of control | endpoint: mean survival time, dose: 200.0 mg/kg/injection, schedule: Q04DX002 (ip), vehicle: saline 100 % of control | endpoint: mean survival time, dose: 400.0 mg/kg/injection, schedule: Q04DX002 (ip), vehicle: saline 93 % of control

Cn1cnc2cnc([N+](C)(C)C)nc21
inactive: [11] 103 % of control | [12] 114 % of control

C/C=C/c1cc(C)cc(C)c1OC(C)CC (stereo unspecified)
inactive: endpoint: mean survival time, dose: 100.0 mg/kg/injection, schedule: Q04DX002 (ip), vehicle: saline with Tween-80 104 % of control | endpoint: mean survival time, dose: 200.0 mg/kg/injection, schedule: Q04DX002 (ip), vehicle: saline with Tween-80 93 % of control

OCC1COc2ccccc2O1 (stereo unspecified)
inactive: [11] 101 % of control | [12] 106 % of control | endpoint: mean survival time, dose: 400.0 mg/kg/injection, schedule: Q04DX003 (ip), vehicle: saline 103 % of control

N=c1c2ncn(C3CCCC3)c2ncn1O
inactive: [13] 114 % of control | endpoint: mean survival time, dose: 50.0 mg/kg/injection, schedule: Q04DX003 (ip), vehicle: saline with Tween-80 106 % of control | [14] 98 % of control | [15] 103 % of control | [7] 95 % of control | [16] 98 % of control | [17] 115 % of control | [8] 94 % of control

CC(C)(Oc1ccc(Cl)cc1)C(=O)NCCCCCC(=O)O
inactive: [13] 98 % of control | [15] 98 % of control | [17] 95 % of control

Nc1ccc(SC(Sc2ccc(N)cc2)c2ccccc2)cc1
inactive: [18] 105 % of control | endpoint: mean survival time, dose: 75.0 mg/kg/injection, schedule: Q04DX003 (ip), vehicle: other 101 % of control | [19] 107 % of control | endpoint: mean survival time, dose: 150.0 mg/kg/injection, schedule: Q04DX003 (ip), vehicle: other 89 % of control | endpoint: mean survival time, dose: 300.0 mg/kg/injection, schedule: Q01DX001 (ip), vehicle: other 100 % of control | endpoint: mean survival time, dose: 300.0 mg/kg/injection, schedule: Q04DX003 (ip), vehicle: other 92 % of control

O=C(/C=C/c1ccccc1)N(Cc1ccccc1)c1ccccc1
inactive: endpoint: mean survival time, dose: 100.0 mg/kg/injection, schedule: Q01DX009 (ip), vehicle: Klucel (hydroxypropylcellulose) (HPC) 97 % of control | endpoint: mean survival time, dose: 200.0 mg/kg/injection, schedule: Q01DX009 (ip), vehicle: Klucel (hydroxypropylcellulose) (HPC) 101 % of control | endpoint: mean survival time, dose: 400.0 mg/kg/injection, schedule: Q01DX009 (ip), vehicle: Klucel (hydroxypropylcellulose) (HPC) 103 % of control

CC1CC(C)CC(C(O)C2CCCCC2)C1 (stereo unspecified)
inactive: [18] 101 % of control | [19] 106 % of control

O=C(COc1ccccc1)c1ccccc1
inactive: endpoint: mean survival time, dose: 12.5 mg/kg/injection, schedule: Q04DX002 (ip), vehicle: Klucel (hydroxypropylcellulose) (HPC) 93 % of control | endpoint: mean survival time, dose: 25.0 mg/kg/injection, schedule: Q04DX002 (ip), vehicle: Klucel (hydroxypropylcellulose) (HPC) 104 % of control | endpoint: mean survival time, dose: 50.0 mg/kg/injection, schedule: Q04DX002 (ip), vehicle: Klucel (hydroxypropylcellulose) (HPC) 96 % of control | [2] 95 % of control

CCS(=O)(=O)c1nc2ccccc2[nH]1
inactive: [1] 97 % of control | [2] 108 % of control | [3] 108 % of control

Cc1cc(C)c2[nH]c(=O)c(C)c(C)c2c1Br
inactive: endpoint: mean survival time, dose: 100.0 mg/kg/injection, schedule: Q01DX001 (ip), vehicle: other 102 % of control | endpoint: mean survival time, dose: 200.0 mg/kg/injection, schedule: Q01DX001 (ip), vehicle: other 94 % of control | endpoint: mean survival time, dose: 400.0 mg/kg/injection, schedule: Q01DX001 (ip), vehicle: other 100 % of control

O=c1[nH]nnc2nc(CCCc3ccccc3)[nH]c12
inactive: [14] 98 % of control | [16] 111 % of control | endpoint: mean survival time, dose: 400.0 mg/kg/injection, schedule: Q01DX001 (ip), vehicle: saline with Tween-80 104 % of control

Nc1ccc(C(=O)N/N=C/c2ccc(Cl)cc2Cl)cc1
inactive: [1] 93 % of control | [2] 93 % of control

C=Cc1cnc(NC(C)=O)c(C#N)n1
inactive: [9] 103 % of control | [10] 100 % of control

Reference: PubChem BioAssay AID248 (DTP/NCI, 2004)
